Measured values reported in patent US8815857B2 (Boehringer Ingelheim International GmbH, priority 2011, dated 2014).
Converted amounts (≈) assume the structure as drawn.

Key:
[1] = Assessment of solubility: HT solubility in pION buffer, UV spectrophotometry; details: 16-19 h incubation, 1.0% DMSO; for solubility: pION system solution buffer, kinetic from dmso stock
[2] = molecular target: T1, Recombinant human soluble guanylate cyclase (sGC), alpha 1 / beta 1 subunits, heme-free (Homo sapiens, UniProt Q02108+Q02153); experiment: Molecular assay: cGMP formation by heme-free recombinant sGC (CisBio cGMP detection kit); type: biochemical; details: 300 pM heme-free sGC, 37° C., 60 min, cGMP readout; read-out: EC50 nM, Activity of Compounds in Molecular Assay
T1 construct: histidine tag (C); made in house; host or cells: Sf9 insect cells (baculovirus coinfection)
T1 sequence (Q02108 1-690 partner): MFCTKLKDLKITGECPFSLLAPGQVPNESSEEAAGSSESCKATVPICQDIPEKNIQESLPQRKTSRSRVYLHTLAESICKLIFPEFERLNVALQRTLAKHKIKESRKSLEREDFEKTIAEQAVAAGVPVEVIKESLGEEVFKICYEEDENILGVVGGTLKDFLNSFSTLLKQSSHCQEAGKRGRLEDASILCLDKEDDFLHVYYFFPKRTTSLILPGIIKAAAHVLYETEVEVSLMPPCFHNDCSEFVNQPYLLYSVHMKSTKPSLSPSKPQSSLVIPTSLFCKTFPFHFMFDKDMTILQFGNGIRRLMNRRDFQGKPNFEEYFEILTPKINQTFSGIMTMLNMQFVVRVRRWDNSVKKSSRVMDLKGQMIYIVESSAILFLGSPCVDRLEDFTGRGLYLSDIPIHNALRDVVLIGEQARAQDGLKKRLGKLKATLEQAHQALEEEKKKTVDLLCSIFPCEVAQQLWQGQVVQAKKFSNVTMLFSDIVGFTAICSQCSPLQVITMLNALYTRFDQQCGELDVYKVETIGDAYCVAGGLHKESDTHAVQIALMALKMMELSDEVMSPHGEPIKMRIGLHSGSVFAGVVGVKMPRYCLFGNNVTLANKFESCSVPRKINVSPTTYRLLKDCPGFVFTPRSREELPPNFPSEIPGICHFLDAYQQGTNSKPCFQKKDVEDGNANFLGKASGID
T1 sequence (Q02153 1-619): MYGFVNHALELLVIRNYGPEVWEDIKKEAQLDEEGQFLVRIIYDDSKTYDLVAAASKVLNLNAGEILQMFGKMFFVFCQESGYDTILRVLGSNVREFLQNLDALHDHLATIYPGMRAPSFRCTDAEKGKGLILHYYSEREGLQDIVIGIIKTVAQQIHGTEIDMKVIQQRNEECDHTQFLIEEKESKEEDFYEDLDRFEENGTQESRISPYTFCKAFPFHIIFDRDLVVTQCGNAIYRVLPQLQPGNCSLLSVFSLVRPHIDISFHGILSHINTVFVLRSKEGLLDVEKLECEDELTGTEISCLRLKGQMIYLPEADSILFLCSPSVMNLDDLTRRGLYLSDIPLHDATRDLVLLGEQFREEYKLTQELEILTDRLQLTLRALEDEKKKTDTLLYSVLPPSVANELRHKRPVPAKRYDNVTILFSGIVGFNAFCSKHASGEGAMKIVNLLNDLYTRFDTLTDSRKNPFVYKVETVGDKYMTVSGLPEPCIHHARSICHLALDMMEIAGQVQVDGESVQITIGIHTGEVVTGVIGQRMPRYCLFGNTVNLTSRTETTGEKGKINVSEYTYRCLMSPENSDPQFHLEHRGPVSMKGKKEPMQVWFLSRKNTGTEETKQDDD
How it was run: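 cGMP generated over 60 min at 37° C (pH 6.8 MOPS buffer, 50 nM GTP, 1.25 mM IBMX, 1% DMSO) by 300 pM heme-free sGC, expressed in Sf9 and heme-stripped with 0.5% Tween 20. HTRF ratios converted to nM cGMP; EC50 fitted from log concentration.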

[3] = pH 4.5, pH 4.5, aqueous buffer, Solubility (pH 4.5), pH 4.5 buffer
[4] = pH 7.4, pH 7.4, aqueous buffer, Solubility (pH 7.4), pH 7.4 buffer

| Structure (SMILES) | solubility [1, 3] [µg/mL] | solubility [1, 4] [µg/mL] | EC50 [2] [nM] | Solubility (pH 4.5) ([1]; pH 4.5 buffer) [μg/mL] |
| --- | --- | --- | --- | --- |
| Cc1cc(CN2CCOCC2)ccc1COc1ccc(C#N)cc1-c1csc(N2C3CCC2CC(C(=O)O)C3)n1 (stereo not drawn) [Compound 87] | > 63 | > 63 | 800 | – |
| Cc1cc(CN2CCOCC2)ccc1COc1ccccc1-c1csc(N2CCC(C(=O)O)CC2C(F)(F)F)n1 (stereo not drawn) [Compound 114] | 30 (≈ 52.1 µM) | > 57 | 470 | – |
| Cc1cc(CN2CCS(=O)(=O)CC2)ccc1COc1ccccc1-c1csc(N2CCC(C(=O)O)C(C(F)(F)F)C2)n1 (stereo not drawn) [Compound 150] | 1.4 (≈ 2.24 µM) | > 62 | 1200 | – |
| Cc1cc(CN2CCS(=O)(=O)CC2)ccc1COc1ccc(Cl)cc1-c1csc(N2CCC(C(=O)O)C(C(F)(F)F)C2)n1 (stereo not drawn) [Compound 157] | 0.15 (≈ 0.228 µM) | > 65 | 940 | – |
| Cc1cc(C(=O)N2CCCCC2)ccc1COc1ccc(Cl)cc1-c1csc(N2CC3C(C2)C3C(=O)O)n1 (stereo not drawn) [Compound 78] | 0.2 (≈ 0.362 µM) | > 55 | 550 | – |
| Cc1ccc(OCc2ccc(C(=O)N3CCCCC3)cc2C)c(-c2csc([C@H]3CC[C@@H](C(=O)O)CC3)n2)c1 [Compound 37] | 0.15 (≈ 0.282 µM) | > 53 | 2100 | – |
| Cc1ccc(OCc2ccc(CN3CCN(C(=O)C4CCOC4)CC3)cc2C)c(-c2csc(N3CCC(C(=O)O)CC3)n2)c1 (stereo not drawn) [Compound 197] | 51 (≈ 82.4 µM) | > 71 | 230 | – |
| Cc1ccc(OCc2ccc(CN3CCOCC3)cc2C)c(-c2csc(N3CCC(C(=O)O)CC3)n2)c1 [Compound 20, 1-{4-[5-methyl-2-(2-methyl-4-morpholin-4-ylmethyl-benzyloxy)-phenyl]-thiazol-2-yl}-piperidine-4-carboxylic acid] | 33 (≈ 63.3 µM) | 36 (≈ 69 µM) | 140 | – |
| Cc1ccc(OCc2ccc(C(=O)N3CCCCC3)cc2C#N)c(-c2csc(N3CCC(C(=O)O)CC3)n2)c1 [Compound 65] | – | 23 (≈ 42.2 µM) | 58 | 0.1 |
| Cc1ccc(OCc2ccc(C(=O)N3CCCCC3)cc2C)c(-c2csc(N3CC4C(C3)C4C(=O)O)n2)c1 (stereo not drawn) [Compound 34] | 0.9 (≈ 1.69 µM) | > 53 | 390 | – |
| Cc1ccc(OCc2ccc(CN3CCOCC3)cc2C)c(-c2csc(N3CC[C@@H](C(=O)O)[C@@H](C)C3)n2)c1 [Compound 173] | > 64 | > 64 | 140 | – |
| Cc1ccc(OCc2ccc(C(=O)N3CCCCC3)cc2C)c(-c2csc(N3CC4CCC(C3)C4C(=O)O)n2)c1 (stereo not drawn) [Compound 89, 3-(4-{5-methyl-2-[2-methyl-4-(piperidine-1-carbonyl)-benzyloxy]-phenyl}-thiazol-2-yl)-3-aza-bicyclo[3.2.1]octane-8-carboxylic acid] | 0.35 (≈ 0.625 µM) | 32 (≈ 57.2 µM) | 2.5 | – |
| Cc1cc(CN2CCOCC2)ccc1COc1ccc(Cl)cc1-c1csc(N2CCC(C(=O)O)CC2C)n1 (stereo not drawn) [Compound 84] | 14 (≈ 25.2 µM) | 21 (≈ 37.8 µM) | 180 | – |
| Cc1ccc(OCc2ccc(CN3CCOCC3)cc2C#N)c(-c2csc(N3CC[C@@H](C(=O)O)[C@@H](C)C3)n2)c1 (relative stereo) [Compound 69, cis-1-[4-[2-[[2-cyano-4-(morpholinomethyl)phenyl]methoxy]-5-methyl-phenyl]thiazol-2-yl]-3-methyl-piperidine-4-carboxylic acid] | > 65 | > 65 | 72 | – |
| Cc1ccc(OCc2ccc(C(=O)N3CCCCC3)cc2C)c(-c2csc(N3CCC(C(=O)O)C(C(F)(F)F)C3)n2)c1 (stereo not drawn) [Compound 142] | 2 (≈ 3.32 µM) | > 60 | 160 | – |
| Cc1cc(CN(C)C2CCS(=O)(=O)C2)ccc1COc1c(C)cccc1-c1csc(N2CCC(C(=O)O)CC2)n1 (stereo not drawn) [Compound 123] | 31 (≈ 53.1 µM) | > 58 | 17 | – |
| Cc1cc(CN2CCS(=O)(=O)CC2)ccc1COc1ccc(F)cc1-c1csc(N2CCC(C(=O)O)CC2)n1 [Compound 111] | 0.25 (≈ 0.436 µM) | > 57 | 74 | – |
